{
  "source": "patent EP4744665A1",
  "about": "“COMBINATION OF POLQ INHIBITOR COMPOUND AND ANTI-CANCER THERAPEUTIC AGENT OR RADIOTHERAPY” (Simcere Zaiming Pharmaceutical Co., Ltd., priority 2023, dated 2025)",
  "key": {"[1]": {"tested_on": "A2780", "assay": "Combined use with combination drug, matrix study, Bliss Independence model (Cell Titer Glo, 7 days)", "type": "cell-based, human", "procedure": "(§1) DLD-1 colorectal adenocarcinoma cells, DLD-1 BRCA2 (-/-) colorectal adenocarcinoma cells, SHP-77 human small cell lung cancer cells, NCI-H82 human small cell lung cancer cells, LNCAP prostate cancer cells, KURAMOCHI human ovarian cancer cells, A2780 human ovarian cancer cells, and NCI-H23 non-small cell lung cancer cells were cultured in a 1640 medium containing 10% fetal bovine serum. SKOV3 human ovarian cancer cells were cultured in a McCoy's 5A (modified) medium containing 10% fetal bovine serum. OVCAR3 ovarian cancer cells were cultured in a 1640 medium containing 20% fetal bovine serum and 10 µg/mL bovine insulin. MDA-MB-436 breast cancer cells (natural BRCA1 mutation) and A549 non-small cell lung cancer cells were cultured in a DMEM medium containing 10% fetal bovine serum. Capan-1 human pancreatic cancer cells (natural BRCA2 mutation) were cultured in an IMDM medium containing 20% fetal bovine serum. The cells were all cultured at 37 °C with 5% CO2. Cells at the logarithmic growth phase were available for the experiment.\n(§2) 100 µL of the cell medium was added to rows A and H and columns 1 and 12 of a 96-well cell culture plate. Cultured cells were resuspended (adherent cells were digested with trypsin) and counted to give information on cell density and viability. The dilution ratio of the resuspended cells required for inoculating a fixed number of cells into 80 µL of the medium in each culture well was calculated based on the cell density information. After the resuspended cells were diluted with the corresponding medium, 80 µL of the diluted cells were transferred to columns 2-11 of rows B-G of a 96-well cell culture plate using an Eppendorf multi-channel pipette (60 wells in total for each plate). The cell culture plate was incubated overnight in an incubator at 37 °C with 5% CO2.\n(§3) The test compound and the combination compound were dissolved in DMSO to give a 10 mM solution for later use. In the experiment, the compound was further diluted to the corresponding concentration according to the concentration designed in the experiment, and based on this concentration, serial gradient dilution was performed. Matrix study was performed at 8 or 7 dose concentrations of the test compound (the lowest dose concentration was 0, and other specific concentration values were shown in FIG. 1) and 7 or 8 dose concentrations of the combination compound (the lowest dose concentration was 0, and other specific concentration values were shown in FIG. 1). 10 µL of each of the diluted combination compound and test compound was added to the corresponding cell plate well, such that the final concentration of DMSO was 0.25%. The test compound and the cells were incubated in an incubator at 37 °C with 5% CO2 for another 7 days, Cell Titer Glo was added at 50 µL/well, and the luminescence value of each well was read using an Envision microplate reader.\n(§4) The luminescence value of the well containing only the cell medium was taken as the background (RLUbackground, corresponding cell survival rate to be 0%), the cell well containing only 0.25% DMSO without the compound was taken as the maximum signal (RLUDMSO, corresponding cell survival rate to be 100%), and the luminescence values of the remaining wells containing cells and compounds at different concentrations were taken as RLUsample. The survival rate of each cell well was calculated as follows: Survival rate (%) = (RLUsample−RLUbackground)/(RLUDMSO−RLUbackground) × 100% [formula]\n(§5) The interaction between drugs (synergistic, independent, or antagonistic) was statistically analyzed by the Bliss Independence model using Combenefit software (Bliss, C.I., Bacteriol. Rev., 1956, 20, 243-258). The model assumes that each drug acts independently. The theoretical expected action curve of the combination was calculated from the following equation: Bliss effect = effect A + effect B−effect A × effect B [formula] wherein effect A and effect B are the effects of drugs A and B alone at specific concentrations. […]"}, "[2]": {"tested_on": "Capan-1", "assay": "Combined use with combination drug, matrix study, Bliss Independence model (Cell Titer Glo, 7 days)", "type": "cell-based, human", "procedure": "as §1, §2, §3, §4, §5"}, "[3]": {"tested_on": "SKOV3", "assay": "Combined use with combination drug, matrix study, Bliss Independence model (Cell Titer Glo, 7 days)", "type": "cell-based, human", "procedure": "as §1, §2, §3, §4, §5"}, "[4]": {"tested_on": "human colorectal adenocarcinoma DLD1 BRCA2-/- cells", "assay": "Efficacy of combined use with olaparib in DLD1 BRCA2-/- xenograft tumor model", "type": "in vivo, NU/NU nude mice", "conditions": "10 mg/kg QD intragastric in combination with 50 mg/kg olaparib QD", "text": "The anti-tumor activity of the sodium salt of compound I used in combination with olaparib (MCE, 136925) was studied using a DLD1 BRCA2-/- subcutaneous tumor model. 32 female NU/NU nude mice (6-8 weeks old, Beijing Vital River Laboratory Animal Technology Co., Ltd.) were subcutaneously inoculated with 1 × 10^7 human colorectal adenocarcinoma DLD1 BRCA2-/- cells (Horizon- HD105-007). When the tumors grew to 80-100 mm^3, the mice were randomly divided into four groups with eight mice per group: a first group treated with vehicle control (QD) by intragastric administration, a second group treated with a 10 mg/kg solution of the sodium salt of compound I (QD) by intragastric administration, a third group treated with a 50 mg/kg olaparib solution (QD) by intragastric administration, and a fourth group treated with a 10 mg/kg solution of the sodium salt of compound I (QD) by intragastric administration and a 50 mg/kg olaparib solution (QD) by intragastric administration. The vehicle of olaparib was a solution containing 10% DMSO, 50% 2-hydroxypropyl-β-cyclodextrin (Aladdin-F2223139, 60% aqueous solution), and 40% water, the vehicle of the sodium salt of compound I was 10% (w/v) Vitamin E TPGS (Hanhong Chemical-BH-GN0100619-22 1101) aqueous solution, and the vehicle of the vehicle control group was a mixture of the vehicle of olaparib and the vehicle of the sodium salt of compound I (mixed at a volume ratio of 1:1). Mice had free access to food and water throughout the experiment.\nTumor diameters were measured twice weekly using a vernier caliper. The tumor volume (V) was calculated using the following formula: V = 0.5a × b^2, wherein a and b represent the long diameter and short diameter of the tumor, respectively.\nMouse body weight was measured twice weekly.\nTwo way ANOVA was used to compare the differences in tumor growth trend among groups, and a significant difference was considered when p < 0.05."}, "[5]": {"conditions": "combination with Doxorubicin hydrochloride (Topoisomerase II inhibitor)"}, "[6]": {"conditions": "combination with Paclitaxel (Tubulin inhibitor)"}},
  "data": [
    {"smiles": "COc1ccc(Cl)cc1-c1cc(C)ncc1C(=O)Nc1nc2ncc(-c3ccc(C#N)cc3)nc2s1.[Na]", "note": "[Sodium salt of compound I, Sodium Salt of 4-(5-Chloro-2-methoxyphenyl)-N-[6-(4-cyanophenyl)thiazolo[4,5-b]pyrazin-2-yl]-6-methylnicotinamide]", "values": [
      {"measurement": "Combined effect", "setting": "[1]; [5]", "result": "Synergistic"},
      {"measurement": "Combined effect", "setting": "[1]; combination with Etoposide (Topoisomerase II inhibitor)", "result": "Synergistic"},
      {"measurement": "Combined effect", "setting": "[1]; [6]", "result": "Synergistic"},
      {"measurement": "Combined effect", "setting": "[2]; combination with Niraparib (PARP inhibitor)", "result": "Synergistic"},
      {"measurement": "Combined effect", "setting": "[2]; combination with Olaparib (PARP inhibitor)", "result": "Synergistic"},
      {"measurement": "Combined effect", "setting": "[2]; combination with RP3500 (ATR inhibitor)", "result": "Synergistic"},
      {"measurement": "Combined effect", "setting": "[2]; combination with Talazoparib (PARP inhibitor)", "result": "Synergistic"},
      {"measurement": "Combined effect", "setting": "[3]; [5]", "result": "Synergistic"},
      {"measurement": "Combined effect", "setting": "[3]; [6]", "result": "Synergistic"},
      {"measurement": "anti-tumor effect of combination with olaparib", "setting": "[4]", "result": "strong synergistic anti-tumor effect"},
      {"measurement": "tumor volume", "setting": "[4]; versus either single drug group", "result": "significantly lower"},
      {"measurement": "safety", "setting": "[4]; condition of mice, body weight", "result": "good safety"}
    ]}
  ]
}
